Measurements as given in article PMC8779831, “Enzyme-Responsive Amphiphilic Peptide Nanoparticles for Biocompatible and Efficient Drug Delivery” (Pharmaceutics, 2022).

Experiments:
HeLa cells [1] = assay: Cellular uptake of Dox-loaded nanoparticles, confocal microscopy; assay type: cell-based; conditions: 1 μM, 16 h (results text; method: 2 μM, 6 h)
Protocol: The cellular uptake of Dox-loaded RH-(GLFG)3 nanoparticles in HeLa cells was analyzed using confocal microscopy. HeLa cells were seeded to 1.0 × 10^4 cells/well in an 8-well confocal plate and incubated for 24 h. After incubation, the cells were treated using Free Dox, DD-Dox, and LL-Dox at a final concentration of 2 μM and incubated for 6 h. The nuclei of the cells were stained with 20 μM Hoechst 33324 for 15 min. The prepared cells were observed using confocal microscopy. To understand cellular uptake in tissue, we examined 3D spheroids of HeLa cells. For the formulation of the 3D spheroids, 1.0 × 10^4 cells were seeded in a round shaped 96-well plate coated with 1% agarose and incubated for 3 days. After incubation, the cells formed a globular shaped 3D tissue. The prepared 3D spheroids were treated using Free Dox, DD-Dox, and LL-Dox at a final concentration of 1 μM. The 3D spheroid medium was changed every 2 days for the tissue growth. After 7 days, the 3D spheroids were observed using confocal microscopy.

[2] = system: SW480 cells in zebrafish larvae; assay: In vivo anticancer capability in zebrafish cancer model; conditions: micro-injection, observed 2 days after injection
Protocol: To examine the anticancer activity of the Dox-loaded RH-(GLFG)3 nanoparticles in vivo, we generated zebrafish cancer models using the SW480 cell line. Briefly, zebrafish eggs were incubated in a fish incubator for 2 days and dechorionated. The SW480 cells were stained using cell fluorescence tracker (cell tracker green CMFDA) for 30 min in a cell culture incubator. The labeled cells were then harvested using trypsin-EDTA and washed twice with PBS containing 10% FBS. The labeled cells were then injected into zebrafish larvae by micro-injection. The larvae were split in 96-well microplates containing TAP-water. After 2 days of incubation, Free Dox and Dox-loaded RH-(GLFG)3 nanoparticles (LL-Dox and DD-Dox) were injected into zebrafish larvae by micro-injection. After 2 days of incubation, the larvae were anesthetized using 0.04% tricaine and observed under a fluorescence microscope (Leica DMi8, Wetzlar, Germany).

[3] = Dynamic light scattering (DLS) size of peptide nanoparticles; assay type: physicochemical; conditions: empty peptide nanoparticles 0.5 mg/mL, Tables S1 and S2, mean ± SEM (n=3)
Protocol: (§1) The size of the peptide nanoparticles at concentrations of 0.5 mg/mL was analyzed by dynamic laser light scattering (DLS) with ELS-Z2 (Photal, Otsuka Electronics Co., Ltd., Otsuka, Japan) and a Nano-ZS (Malvern Instruments Ltd., London, UK). The ξ-potential of the peptide nanoparticles was measured using a Nano-ZS. To confirm their stability, the LL and DD nanoparticles were monitored using a DLS instrument every 5 days for 30 days. The morphology of the LL peptide nanoparticles was measured using a field emission scanning electron microscope (FE-SEM). Thereafter, the dried samples of peptide nanoparticles were coated with osmium and analyzed by FE-SEM (Hitachi, Tokyo, Japan) under a 5–10 kV acceleration voltage. The self-assembled structure of the peptide nanoparticles was analyzed using CD spectroscopy (J-1000, Jasco, Hachioji, Japan). The LL and DD peptide nanoparticle solutions were measured in a quartz cuvette at wavelengths of 190 to 260 nm.
(§2) Doxorubicin (Dox) was encapsulated in the RH-(GFLG)3 peptide nanoparticles to evaluate their potential as drug delivery carriers. […] The prepared Dox-loaded RH-(GFLG)3 nanoparticles (LL-Dox, LD-Dox, DL-Dox, and DD-Dox) were stored at 4 °C, and their size diameter and ξ-potential were measured using DLS and zeta instruments of Nano ZS90 (Malvern, Worcestershire, UK) to confirm the formulation of the nanostructure.

[4] = ξ-potential of peptide nanoparticles (Nano-ZS); assay type: physicochemical; conditions: empty peptide nanoparticles; Tables S1 and S2; mean ± SEM (n=3); in mV (unit assumed)
Protocol: as §1, §2

[5] = FE-SEM morphology of peptide nanoparticles; assay type: physicochemical; conditions: dried samples, osmium coated, 5–10 kV
Protocol: as §1

[6] = Storage stability of nanoparticles monitored by DLS; assay type: physicochemical; conditions: DLS every 5 days for 30 days at 4 °C; mean ± SEM (n = 3)
Protocol: as §1

[7] = Critical aggregation concentration with Nile Red probe; assay type: physicochemical
Protocol: The critical aggregation concentration (CAC) value of the RH-(GFLG)3 nanoparticles was analyzed using the hydrophobic probe Nile Red. Briefly, the peptide nanoparticles were prepared at various concentrations ranging from 0.001 to 0.3 mg/mL to make a final volume of 1 mL. Then, the prepared nanoparticle solutions were mixed with 5 μL of 40 μM Nile Red solution in ethanol to a final concentration of 0.2 μM. The samples were dried to remove the ethanol using nitrogen gas stream and incubated for 1 h at room temperature (25 °C). After incubation, prepared samples were measured using fluorescence spectroscopy (PerkinElmer, Waltham, MA, USA) at an excitation wavelength of 515 nm and emission wavelengths of 550–750 nm. The CAC of the peptide nanoparticles was analyzed by fluorescence intensity at 650 nm.

HeLa cells [8] = assay: Cytotoxicity of peptide nanoparticles, WST-1 / MTT assay; assay type: cell-based; conditions: 24 h, highest concentration of 0.2 μg/μL, mean ± SEM (n = 3)
Protocol: (§3) The cytotoxicity of the RH-(GFLG)3 nanoparticles was examined using WST-1, LDH, and hemolysis assays. For the WST-1 assay, the HeLa cells were seeded to 1.0 × 10^4 cells/well in a 96-well microplate and incubated for 24 h. PEI 25kD and LL, LD, DL, and DD were prepared at various concentrations (0.025 to 0.2 μg/μL). PEI 25kD, a cationic polymer, was introduced as a positive control. After 24 h of incubation, 10 µL WST-1 was added to each well and incubated for 2 h. WST-1 formazan was measured using a VERASmax microplate reader (Molecular Devices, LLC, Sunnyvale, CA, USA) at an absorbance of 450 nm. For the LDH assay, 20% Tween-20 treated cells were examined as maximum LDH activated control to calculate the LDH activity (%) of samples. After 24 h incubation, 10 μL of the supernatant of each sample was collected and added to a working reagent containing 0.2 mM NADH and 2.5 mM sodium pyruvate in a 96-well microplate and incubated for 45 min at 37 °C. Finally, the LDH activity was quantified by measuring the absorbance at 490 nm using a microplate reader.

HeLa cells [9] = assay: LDH assay (membrane damage); assay type: cell-based; conditions: 24 h, 0.025–0.2 μg/μL, relative to 20% Tween-20 control
Protocol: as §3

human RBCs = assay: Hemolysis assay; assay type: cell-based; conditions: 0.1 and 0.2 μg/μL, 2 h at 37 °C, absorbance 450 nm, Triton X-100 0.2% as maximum
Protocol: The hemolysis of LL, LD, DL, and DD nanoparticles was investigated using human blood cells. PEI 25kD was introduced as a positive control. Briefly, fresh human blood was obtained from healthy volunteers. Coagulation of human blood was prevented using ethylenediaminetetraacetic acid (EDTA). The human blood was centrifuged at 5000 rpm for 5 min to separate the red blood cells (RBCs) from the serum. The isolated RBCs were washed twice using PBS and diluted to 2.0 × 10^8 cells/mL in PBS. To evaluate the hemolytic activity, Triton X-100 0.2% treated samples were used as the maximum hemolytic activity control. A 0.25 mL volume of the prepared RBCs was mixed with 0.25 mL of each sample (final concentration of 0.1 μg/μL and 0.2 μg/μL, respectively). The mixed samples were incubated for 2 h at 37 °C. After incubation, the samples were centrifuged at 5000 rpm for 5 min, and […] of the supernatant of each sample was collected. The supernatant was diluted 10-fold using PBS to a final volume of 100 μL. The prepared supernatant solution was added to a 96-well microplate and measured at 450 nm using a VERSAmax microplate reader (Molecular Devices, San Jose, CA, USA).

HeLa cells [10] = assay: Cellular uptake of Nile Red-tagged nanoparticles (confocal microscopy, FACS); assay type: cell-based; conditions: Nile Red-tagged nanoparticles 0.2 mg/mL, 6 h confocal microscopy (16 h FACS)
Protocol: The cellular uptake ability of the peptide nanoparticle was analyzed using confocal microscopy (Zeiss International, Oberkochen, Germany) and fluorescence-activated cell sorting (FACS) (BD Biosciences, San Jose, CA). For confocal microscopy assays, 1.0 × 10^4 cells/well were seeded in an 8-well confocal plate and incubated for 24 h. Nile Red-tagged LL, DL, DL, and DD peptide nanoparticles were treated to a final concentration of 0.2 mg/mL, and the cells were incubated for 6 h. After incubation, the cell nuclei were stained with 20 μM Hoechst 33324 for 15 min. The prepared cells were observed using confocal microscopy. In the FACS assay, 1.0 × 10^6 cells/well were seeded in 6-well microplate and incubated for 24 h. After incubation, the Nile Red-tagged peptide nanoparticles were treated to a final concentration of 0.2 mg/mL, and cells were incubated for 16 h. After incubation, the cells were washed twice using DPBS and harvested using trypsin-EDTA. The cells were collected by centrifugation (1500 rpm, 3 min) and resuspended in 500 μL of DPBS. The prepared samples were transferred to a FACS tube and analyzed using FACS.

cathepsin B = biological target: T1, cathepsin B (Homo sapiens, UniProt P07858); assay: Enzyme-responsiveness test with cathepsin B, MALDI-TOF MS; assay type: in vitro ADME; conditions: 0.02 μM cathepsin B in activation buffer, 37 °C, 6 h; versus control without enzyme
T1 construct: purchased Sigma-Aldrich (Seoul, Korea)
Protocol: The enzyme-responsive ability of RH-(GFLG)3 was analyzed using matrix assisted laser mass spectroscopy (MALDI-TOF, Voyager TOF Mass Spectrometer, Applied Biosystems Inc., Carlsbad, CA, USA). The LL, LD, DL, and DD peptides were treated with 0.02 μM of the enzyme cathepsin B in an activation buffer at 37 °C for 6 h. To compare enzyme-responsive ability, control groups without enzyme were treated identically in an activation buffer at 37 °C for 6 h. The prepared peptides were measured using MALDI-TOF (Voyager TOF Mass Spectrometer) in a α-cyano-4-hydroxycinnamic acid (CHCA) matrix.

HeLa cells [11] = assay: Anticancer effect, MTT assay in HeLa cells; assay type: cell-based; conditions: HeLa, 24, 48 and 72 h, peptide without Dox
Protocol: (§4) The anticancer activity of Dox-loaded peptide nanoparticles in HeLa and SW480 cells was determined with an MTT assay. Cells were seeded to 1.0 × 10^4 cells/well in a 96-well microplate and incubated for 24 h. After incubation, the cells were treated using Free Dox and Dox-loaded RH-(GLFG)3 nanoparticles to a final concentration of 0.25–2 μM and incubated for 24–72 h. After incubation, the prepared samples were analyzed following the method described above. To understand the anticancer effect in tissue, 3D spheroids of HeLa cells were prepared as described above. The prepared 3D spheroids were treated with 1 μM Free Dox, DD-Dox, and LL-Dox and incubated for 1–7 days. The morphology of the 3D spheroids was observed using an objective microscope every day. After 7 days of incubation, the viability of the spheroids was analyzed using an MTT assay. The spheroids were added to the MTT solution (2 mg/mL in DPBS) and incubated for 4 h. The supernatant was removed, and 150 μL of DMSO was added to each sample. The prepared samples were measured using a micro reader (Molecular Devices, San Jose, CA, USA) at an absorbance of 570 nm.

SW480 cells = assay: Anticancer effect, MTT assay in SW480 cells; assay type: cell-based; conditions: SW480, 24, 48 and 72 h, peptide without Dox
Protocol: as §4

Hydrodynamic diameter [3] [nm]	Polydispersity index (PDI) [3]	Ξ-Potential [4]	size of globular nanostructure in FE-SEM images [5]	nanoscale diameter during storage [6]	critical aggregation concentration (CAC) ([7]; Nile Red 0.2 μM, peptide 0.001–0.3 mg/mL, 1 h at 25 °C, fluorescence ex 515 nm, intensity at 650 nm)	CAC (printed in Figure 2E) ([7]; Nile Red probe, fluorescence at 650 nm) [µg/µL]	degradation by cathepsin B (peak at 1433 m/z in MALDI-TOF mass spectrum) (cathepsin B)	Compound	cellular uptake ability of Dox (HeLa cells [1])	anticancer effect on cell tracker labelled SW480 cells (fluorescence) [2]	cytotoxicity (cell viability) (HeLa cells [8])	LDH release (HeLa cells [9])	hemolysis (human RBCs)	cellular uptake ability (HeLa cells [10])	cytotoxicity of peptide control groups (HeLa cells [11])	cytotoxicity of peptide control groups (SW480 cells)
–	–	–	–	–	–	–	–	COc1cccc2c1C(=O)c1c(O)c3c(c(O)c1C2=O)C[C@@](O)(C(=O)CO)C[C@@H]3O[C@H]1C[C@H](N)[C@H](O)[C@H](C)O1 [Free Dox, doxorubicin]	low cellular uptake ability	low anticancer effect	–	–	–	–	–	–
118 ± 7.7	0.245 ± 0.010	30.1 ± 0.4	smaller than 100 nm	less than 200 nm	around 0.02 mg/mL	0.02	no peak at 1433 m/z	Arg-His-(Gly-Phe-Lue-Gly)3 [LL]	–	–	negligible cytotoxicity	negligible LDH release	negligible hemolysis	higher uptake	negligible cytotoxicity	negligible cytotoxicity
